Results: publication PMC4067310, “From Pan-Reactive KV7 Channel Opener to Subtype Selective Opener/Inhibitor by Addition of a Methyl Group” (PLoS ONE, 2014)
Like-named read-outs stand apart in the source and are kept apart here.

Columns and labels:
KV7.2-L299V = molecular target: T1, KV7.2-L299V (Homo sapiens, UniProt O43526, L299V); assay: Two-electrode voltage-clamp of mutant KV7.2-L299V in Xenopus laevis oocytes; assay type: cell-based; conditions: 10 µM SMB-1, +50 mV, n = 4; read-out: current amplitude, % of control
T1 construct: expressed in transfected cells; host or cells: Xenopus laevis oocytes injected with cRNA (pGEM-HE vector)
Method: Point mutations were introduced using mutated oligonucleotide extension (PfuTurbo Polymerase, Stratagene, La Jolla, CA, USA) from a plasmid template harboring the cDNA of interest, digested with DpnI (Fermentas, St. Leon-Roth, Germany) and transformed into E.coli XL1 Blue cells. The construct was verified by complete DNA sequencing of the cDNA insert. cRNA was prepared from linearized human wild-type (WT) and mutant KV7 channels in the pGEM-HE vector using the T7 m-Message Machine kit (Ambion, Austin, TX, USA) according to the manufacturer's instructions.
Extraction of Xenopus laevis oocytes and injection of cRNA was performed as described previously. Oocytes were kept in Modified Barth's Saline (in mM: 88 NaCl, 1 KCl, 2.4 NaHCO3, 0.41 CaCl2, 0.82 MgSO4, 0.3 Ca(NO3)2, 15 HEPES, pH 7.4 supplemented with 100 U/mL penicillin and 100 µg/mL streptomycin) at 18°C, and currents were recorded after 2-7 days. […]
KV7 currents in Xenopus laevis oocytes were recorded using two-electrode voltage-clamp at room temperature in Ringer buffer (in mM: 115 NaCl, 2.5 KCl, 1.8 CaCl2, 0.1 MgCl2, 10 HEPES, pH 7.4) as described previously. Data was acquired using pCLAMP 10.2 software (Molecular Devices, CA, USA) and analyzed using pCLAMP 10.2 and GraphPad Prism 4.0 (GraphPad Software Inc., CA, USA). […]

[1] = Brain and plasma exposure in rats after subcutaneous administration; assay type: in vivo; conditions: male, Sprague-Dawley, sc, rat, 20 mg/kg s.c.; for concentration at 30 min / concentration at 120 min: n = 3, mean ± S.E.M
Method: Brain and plasma exposure of SMB-1 was evaluated in male Sprague-Dawley rats (225–250 g, Charles River Lab., UK). SMB-1 was administered subcutaneously in solution at a dose of 20 mg/kg in 25% solutol (dose volume 5 ml/kg) and exposure was assessed after 30 and 120 min (n = 3). Under isoflurane anesthesia, cardiac blood was obtained in EDTA-coated tubes and centrifuged for 10 min at 4°C, after which plasma was harvested. While still under anesthesia, the animal was decapitated, the brain was removed and brain homogenate was prepared by homogenizing the whole brain with 70% acetonitrile (1∶4 v/v) followed by centrifugation and collection of the supernatant. Concentrations of SMB-1 were determined using turboflow chromatography (dual column, focus mode; Thermo Fisher Scientific, Waltham, MA) followed by tandem mass spectrometry detection (Sciex API-3000 MS; Applied Biosystems, Foster City, CA). The limit of detection was 1 ng/ml in plasma and 5 ng/g in brain.

[2] = tested on: human MDR1 (ABCB1, P-glycoprotein); assay: Bidirectional permeability in MDR1-MDCK cells; assay type: in vitro ADME; conditions: dog, MDCK-MDR1, 150-min incubation at 37°C
Method: (§1) The bidirectional permeability (Papp) of SMB-1 was examined in an MDCK cell system expressing human MDR1 [ABCB1, P-glycoprotein (P-gp)] as described previously. Permeation of the test compound from apical (A) to basal (B) direction or B to A direction was determined in triplicate over a 150-min incubation at 37°C. The efflux ratio was calculated as the ratio between Papp (B to A) and Papp (A to B). Free fraction of SMB-1 was determined using a standard equilibrium dialysis methodology with freshly isolated rat brain homogenate or plasma. Equilibrium dialysis was performed by incubating at 37°C for 5 h in triplicates.

[3] = tested on: MDCK cell system expressing human MDR1 [ABCB1, P-glycoprotein (P-gp)]; assay: Bidirectional permeability in MDR1-MDCK cells; assay type: in vitro ADME; conditions: judged from the efflux ratio in MDR1-MDCK cells
Method: as §1

[4] = brain, read-out: Brain total concentration
[5] = plasma, read-out: Plasma total concentration

T1 sequence (O43526 whole entry L299V): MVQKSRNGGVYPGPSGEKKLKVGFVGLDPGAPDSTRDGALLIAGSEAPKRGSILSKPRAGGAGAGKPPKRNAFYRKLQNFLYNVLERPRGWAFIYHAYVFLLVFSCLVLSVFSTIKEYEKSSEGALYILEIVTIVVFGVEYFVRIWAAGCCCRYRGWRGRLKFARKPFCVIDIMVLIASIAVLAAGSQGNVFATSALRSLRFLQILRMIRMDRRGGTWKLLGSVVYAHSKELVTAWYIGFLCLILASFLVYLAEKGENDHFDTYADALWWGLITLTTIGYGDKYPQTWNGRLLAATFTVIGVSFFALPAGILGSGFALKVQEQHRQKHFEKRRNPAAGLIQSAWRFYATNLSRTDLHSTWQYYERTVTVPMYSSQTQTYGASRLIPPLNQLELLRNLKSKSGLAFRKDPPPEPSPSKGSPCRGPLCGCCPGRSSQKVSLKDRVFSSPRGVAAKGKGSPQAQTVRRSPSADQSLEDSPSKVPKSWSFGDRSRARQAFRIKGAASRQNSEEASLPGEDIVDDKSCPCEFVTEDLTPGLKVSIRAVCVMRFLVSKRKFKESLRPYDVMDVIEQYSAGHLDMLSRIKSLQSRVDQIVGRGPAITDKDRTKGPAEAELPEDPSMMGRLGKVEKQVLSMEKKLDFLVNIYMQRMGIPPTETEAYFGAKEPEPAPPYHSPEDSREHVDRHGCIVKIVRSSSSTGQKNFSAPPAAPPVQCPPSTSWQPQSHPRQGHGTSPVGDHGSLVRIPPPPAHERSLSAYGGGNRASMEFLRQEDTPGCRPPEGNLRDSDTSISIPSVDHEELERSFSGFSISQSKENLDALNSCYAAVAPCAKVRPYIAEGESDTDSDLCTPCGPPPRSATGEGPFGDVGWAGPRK

remaining activity at 10 µM (KV7.2-L299V): 69.3 ± 5.6% | concentration at 30 min [1, 4]: 0.55 ± 0.04 µM | concentration at 120 min [1, 4]: 0.44 ± 0.07 µM | Kp at 2 h ([1]; brain/plasma, 30 and 120 min, read-out: brain/plasma partition coefficient): 0.04 to 0.07 | concentration at 30 min [1, 5]: 14 ± 1.5 µM | concentration at 120 min [1, 5]: 6.4 ± 0.7 µM | Papp at 150 min ([2]; triplicate, read-out: membrane permeability (Papp)): 2.5 ± 0.3 ×10⁻⁶ cm/s | efflux ratio at 150 min ([2]; read-out: efflux ratio, Papp (B to A) / Papp (A to B)): 0.7 | substrate for the efflux transporter P-gp [3]: not identified as a substrate
SMILES: C[C@@H](c1ccc2c(c1)N(CC1CC1)CCO2)N(C)C(=O)/C=C/c1ccccc1F [SMB-1, (E)-N-[(S)-1-(4-Cyclopropylmethyl-3,4-dihydro-2H-1,4-benzoxazin-6-yl)-ethyl]-3-(2-fluoro-phenyl)-N-methyl-acrylamide]
